According to ChEMBL document CHEMBL4619814, “Identification and Development of 1,4-Diaryl-1,2,3-triazolo-Based Ureas as Novel FLT3 Inhibitors” (ACS Med Chem Lett, 2020):
Active and inactive are the calls of the source. The calls are words filed in the database; no cut-off is given here.

Experiments:
[1] = molecular target: Receptor-type tyrosine-protein kinase FLT3 (Homo sapiens, UniProt P36888, D835V/ITD)
Description: Binding affinity to recombinant human FLT3 ITD/D835V double mutant expressed in bacterial expression system by Kinomescan method

MV4-11 [2] = test: Induction of cell cycle arrest in human MV4-11 cells assessed as G2/M phase at 100 nM incubated for 48 hrs by propidium iodide staining based flow cytometry analysis (reference value: 24.88 %); format: functional
MV4-11 [3] = test: Induction of cell cycle arrest in human MV4-11 cells assessed as reduction in CDK4 expression at 0.16 to 100 nM by Western blot analysis; format: functional, cell-based
U-937 = test: cells; details: Homo sapiens, U-937, 72 h
Description: Cytotoxicity against human U937 cells assessed as reduction in cell viability incubated for 72 hrs by CCK8 assay

MV4-11 [4] = test: Antitumor activity at human MV4-11 cells xenografted in CB17-SCID mouse assessed as tumor growth inhibition at 40 mg/kg, po administered for 10 days and measured on day 10 relative to control; format: functional; details: MV4-11, po, 240 h, read-out: TGI
[5] = AUC in Sprague-Dawley rat at 25 mg/kg, po; format: ADME, organism-based; details: in vivo
MV4-11 [6] = test: Induction of apoptosis in human MV4-11 cells assessed as early apoptotic cells at 100 nM incubated for 48 hrs by annexin V and 7-AAD staining based flow cytometry analysis (reference value: 6.36 %); format: functional
[7] = molecular target: Receptor-type tyrosine-protein kinase FLT3 (Homo sapiens) (UniProt P36888); test: Inhibition of FLT3 in human NB4 cells assessed as reduction in FLT3 phosphorylation at 0.8 to 500 nM incubated for 6 hrs by Western blot analysis; format: cell-based; details: NB-4
MOLM-13 = test: cells; details: Homo sapiens, MOLM-13, 72 h
Description: Cytotoxicity against human MOLM13 cells assessed as reduction in cell viability incubated for 72 hrs by CCK8 assay

NB-4 = test: cells; details: Homo sapiens, NB-4, 72 h
Description: Cytotoxicity against human NB4 cells assessed as reduction in cell viability incubated for 72 hrs by CCK8 assay

[8] = molecular target: Proto-oncogene tyrosine-protein kinase receptor Ret (Homo sapiens, UniProt P07949)
Chain of Proto-oncogene tyrosine-protein kinase receptor Ret (P07949 whole entry): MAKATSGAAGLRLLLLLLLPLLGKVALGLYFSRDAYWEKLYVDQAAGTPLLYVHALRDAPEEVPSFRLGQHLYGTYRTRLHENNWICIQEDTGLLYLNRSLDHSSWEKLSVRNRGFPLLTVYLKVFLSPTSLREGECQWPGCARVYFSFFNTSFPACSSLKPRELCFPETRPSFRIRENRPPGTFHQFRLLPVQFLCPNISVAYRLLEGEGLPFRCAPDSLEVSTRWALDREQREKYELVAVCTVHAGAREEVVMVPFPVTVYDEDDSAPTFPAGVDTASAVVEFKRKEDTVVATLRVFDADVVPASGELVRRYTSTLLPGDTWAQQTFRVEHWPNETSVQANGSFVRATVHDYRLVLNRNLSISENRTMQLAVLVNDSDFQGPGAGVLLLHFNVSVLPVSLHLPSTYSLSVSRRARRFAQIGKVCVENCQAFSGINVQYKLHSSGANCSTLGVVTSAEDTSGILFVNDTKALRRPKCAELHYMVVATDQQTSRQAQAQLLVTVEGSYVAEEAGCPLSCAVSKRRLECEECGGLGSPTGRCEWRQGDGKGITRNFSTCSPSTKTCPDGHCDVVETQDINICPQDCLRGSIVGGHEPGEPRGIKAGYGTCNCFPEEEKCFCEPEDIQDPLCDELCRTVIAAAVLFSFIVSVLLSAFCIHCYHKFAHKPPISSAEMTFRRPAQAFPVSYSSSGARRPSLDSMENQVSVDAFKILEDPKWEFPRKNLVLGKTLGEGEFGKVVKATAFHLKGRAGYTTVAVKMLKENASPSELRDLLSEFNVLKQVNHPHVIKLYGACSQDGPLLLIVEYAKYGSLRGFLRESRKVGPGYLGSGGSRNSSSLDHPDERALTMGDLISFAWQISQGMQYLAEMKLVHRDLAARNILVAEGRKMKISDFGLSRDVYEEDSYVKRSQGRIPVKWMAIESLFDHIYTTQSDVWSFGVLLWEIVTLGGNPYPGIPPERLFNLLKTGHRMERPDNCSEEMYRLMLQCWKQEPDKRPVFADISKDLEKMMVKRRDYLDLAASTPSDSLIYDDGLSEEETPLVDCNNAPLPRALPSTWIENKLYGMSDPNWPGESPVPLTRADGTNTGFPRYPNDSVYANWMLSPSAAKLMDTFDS
Description: Binding affinity to recombinant human RET (713 to 1014 residues) expressed in bacterial expression system by Kinomescan method

MV4-11 [9] = test: Induction of cell cycle arrest in human MV4-11 cells assessed as S phase at 100 nM incubated for 48 hrs by propidium iodide staining based flow cytometry analysis (reference value: 20.14 %); format: functional
MV4-11 [10] = test: Induction of cell cycle arrest in human MV4-11 cells assessed as S phase at 20 nM incubated for 48 hrs by propidium iodide staining based flow cytometry analysis (reference value: 20.14 %); format: functional
[11] = Oral bioavailability in Sprague-Dawley rat at 25 mg/kg; format: ADME, organism-based; details: in vivo
MV4-11 [12] = test: Induction of apoptosis in human MV4-11 cells assessed as viable cells at 100 nM incubated for 48 hrs by annexin V and 7-AAD staining based flow cytometry analysis (reference value: 90.47 %); format: functional; details: MV4-11, 48 h, read-out: Activity
MV4-11 [13] = test: Induction of cell cycle arrest in human MV4-11 cells assessed as reduction in Cyclin D2 expression at 0.16 to 100 nM by Western blot analysis; format: functional, cell-based
[14] = molecular target: T1, Receptor-type tyrosine-protein kinase FLT3 (Homo sapiens, UniProt P36888)
T1 sequence (P36888 whole entry): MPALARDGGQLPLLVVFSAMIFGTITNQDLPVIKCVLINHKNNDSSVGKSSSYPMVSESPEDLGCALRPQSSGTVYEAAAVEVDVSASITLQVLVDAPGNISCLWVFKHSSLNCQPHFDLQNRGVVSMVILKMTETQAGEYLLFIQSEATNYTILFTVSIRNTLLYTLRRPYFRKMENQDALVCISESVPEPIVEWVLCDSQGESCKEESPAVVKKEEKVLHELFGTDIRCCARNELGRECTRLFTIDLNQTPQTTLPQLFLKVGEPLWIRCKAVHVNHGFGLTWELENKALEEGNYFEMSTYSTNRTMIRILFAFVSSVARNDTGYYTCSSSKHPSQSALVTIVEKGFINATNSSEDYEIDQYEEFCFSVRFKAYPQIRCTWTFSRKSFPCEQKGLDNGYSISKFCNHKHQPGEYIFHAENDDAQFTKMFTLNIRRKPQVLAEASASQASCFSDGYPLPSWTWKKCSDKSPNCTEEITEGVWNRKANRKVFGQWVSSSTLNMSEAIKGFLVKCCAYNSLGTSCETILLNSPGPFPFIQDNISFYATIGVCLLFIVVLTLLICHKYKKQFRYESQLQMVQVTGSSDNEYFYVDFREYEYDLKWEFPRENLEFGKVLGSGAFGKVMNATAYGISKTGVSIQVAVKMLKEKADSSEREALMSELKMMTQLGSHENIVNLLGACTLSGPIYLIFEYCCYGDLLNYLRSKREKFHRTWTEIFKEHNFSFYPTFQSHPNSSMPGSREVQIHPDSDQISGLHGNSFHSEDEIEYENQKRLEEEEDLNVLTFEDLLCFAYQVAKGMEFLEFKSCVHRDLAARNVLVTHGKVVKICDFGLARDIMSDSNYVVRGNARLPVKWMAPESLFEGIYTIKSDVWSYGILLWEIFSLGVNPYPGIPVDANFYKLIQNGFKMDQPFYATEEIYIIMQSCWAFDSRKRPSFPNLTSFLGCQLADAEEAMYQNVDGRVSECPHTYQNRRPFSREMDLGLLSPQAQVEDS
Description: Binding affinity to recombinant human FLT3 (592 to 969 residues) expressed in bacterial expression system by Kinomescan method

[15] = Tmax in Sprague-Dawley rat at 25 mg/kg, po; format: ADME, organism-based; details: in vivo
in vitro = details: mouse, BaF3 cells
Description: Cytotoxicity against human BAF3 cells assessed as growth inhibition incubated for 72 hrs by CCK8 assay

[16] = Half life in Sprague-Dawley rat at 5 mg/kg, iv; format: ADME, organism-based; details: in vivo
MV4-11 [17] = test: Induction of cell cycle arrest in human MV4-11 cells assessed as G0/G1 phase at 4 nM incubated for 48 hrs by propidium iodide staining based flow cytometry analysis (reference value: 54.82 %); format: functional
MV4-11 [18] = test: Induction of cell cycle arrest in human MV4-11 cells assessed as G0/G1 phase at 20 nM incubated for 48 hrs by propidium iodide staining based flow cytometry analysis (reference value: 54.82 %); format: functional
[19] = molecular target: Receptor-type tyrosine-protein kinase FLT3 (Homo sapiens, UniProt P36888, ITD); format: cell-based, Sf9
[20] = molecular target: Mast/stem cell growth factor receptor Kit (Homo sapiens, UniProt P10721)
Chain of Mast/stem cell growth factor receptor Kit (P10721 whole entry): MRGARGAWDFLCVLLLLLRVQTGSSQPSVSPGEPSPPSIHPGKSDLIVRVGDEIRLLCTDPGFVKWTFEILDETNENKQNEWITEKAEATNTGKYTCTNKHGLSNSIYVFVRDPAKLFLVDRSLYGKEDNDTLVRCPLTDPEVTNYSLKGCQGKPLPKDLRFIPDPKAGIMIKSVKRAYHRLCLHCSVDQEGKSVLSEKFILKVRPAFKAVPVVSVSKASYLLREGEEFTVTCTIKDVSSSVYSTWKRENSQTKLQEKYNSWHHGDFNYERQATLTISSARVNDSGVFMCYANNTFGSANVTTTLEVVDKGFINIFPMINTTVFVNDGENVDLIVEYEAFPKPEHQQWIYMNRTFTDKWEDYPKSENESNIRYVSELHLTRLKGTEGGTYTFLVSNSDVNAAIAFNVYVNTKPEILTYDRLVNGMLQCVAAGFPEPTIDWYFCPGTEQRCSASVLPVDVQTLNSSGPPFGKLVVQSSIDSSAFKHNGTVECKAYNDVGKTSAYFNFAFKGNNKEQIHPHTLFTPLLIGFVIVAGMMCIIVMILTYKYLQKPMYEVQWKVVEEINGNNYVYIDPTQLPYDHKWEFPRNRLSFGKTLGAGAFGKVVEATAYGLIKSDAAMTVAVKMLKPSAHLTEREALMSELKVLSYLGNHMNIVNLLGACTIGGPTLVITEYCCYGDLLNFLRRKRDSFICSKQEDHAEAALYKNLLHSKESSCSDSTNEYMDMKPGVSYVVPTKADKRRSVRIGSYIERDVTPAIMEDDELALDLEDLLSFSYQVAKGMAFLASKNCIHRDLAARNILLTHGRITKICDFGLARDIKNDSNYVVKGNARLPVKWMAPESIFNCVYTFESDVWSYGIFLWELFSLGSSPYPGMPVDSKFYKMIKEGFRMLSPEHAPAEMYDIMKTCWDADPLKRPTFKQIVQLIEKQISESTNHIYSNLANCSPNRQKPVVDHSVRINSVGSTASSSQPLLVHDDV
Description: Binding affinity to recombinant human KIT (571 to 972 residues) expressed in bacterial expression system by Kinomescan method

MV4-11 [21] = test: Induction of apoptosis in human MV4-11 cells assessed as early apoptotic cells at 20 nM incubated for 48 hrs by annexin V and 7-AAD staining based flow cytometry analysis (reference value: 6.36 %); format: functional
[22] = Tmax in Sprague-Dawley rat at 5 mg/kg, iv; format: ADME, organism-based; details: in vivo
MV4-11 [23] = test: Induction of apoptosis in human MV4-11 cells assessed as necrotic cells at 100 nM incubated for 48 hrs by annexin V and 7-AAD staining based flow cytometry analysis (reference value: 0.91 %); format: functional
MV4-11 [24] = test: Induction of apoptosis in human MV4-11 cells assessed as late apoptotic cells at 4 nM incubated for 48 hrs by annexin V and 7-AAD staining based flow cytometry analysis (reference value: 2.25 %); format: functional

In the case of `CC(C)(C)c1cc(NC(=O)Nc2ccc(-c3cn(-c4ccc(OCCN5CCOCC5)cc4Cl)nn3)cc2)no1`, the Kd [1] is reported as 10000 nM, the Activity (MV4-11 [2]) is reported as 5.11% and the Activity (MV4-11 [3]) is reported as “Active”. For the same compound, the GI50 (U-937) was over 3000 nM, the inhibition in vivo at 40 mg/kg (MV4-11 [4]) was 80.1% and the AUC [5] was 41300 ng·h/mL. For the same compound, the Activity (MV4-11 [6]) was 13.06%, the inhibition [7] was “inactive” and the GI50 (MOLM-13) was 5.9 nM. It also gave a GI50 (NB-4) of over 3000 nM, a Kd [8] of 24 nM and an Activity (MV4-11 [9]) of 4.98%. The Activity (MV4-11 [10]) was 5.68%, the bioavailability [11] was 35.8% and the viability at 0.1 µM (MV4-11 [12]) was 71.6%. For the same compound, the Activity (MV4-11 [13]) was “Active”, the Kd [14] was 3.5 nM and the Tmax [15] was 4 h. It also gave a GI50 at 72 h (in vitro) of over 3000 nM, a half-life [16] of 5.11 h and an Activity (MV4-11 [17]) of 66.16%. For the same compound, the Activity (MV4-11 [18]) was 87.8%, the IC50 [19] was 32.8 nM and the Kd [20] was 21 nM. For the same compound, the Activity (MV4-11 [21]) was 10.62%, the Tmax [22] was 0.25 h and the Activity (MV4-11 [23]) was 3.25%. The Activity (MV4-11 [24]) was 2.64%.
